Laboratory results from PubChem BioAssay (NCI).
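Step 1: Grow cells in 96-well plates. Step 2: Expose to compound for 48 hours at 5 concentrations. Step 3: Interpolate endpoints linearly; if unreached, use highest concentration. GI50 is the concentration that inhibits growth by half. TGI: total growth inhibition.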

Tests used:
Experiment in all cases: NCI anticancer screen, dose series, 48 h
[1] = system: CAKI-1 renal
[2] = system: COLO 205 colon
[3] = system: HCT-116 colon
[4] = system: LOX IMVI melanoma
[5] = system: MCF7 breast
[6] = system: SK-MEL-2 melanoma
[7] = system: SK-OV-3 ovarian
[8] = system: SN12C renal
[9] = system: UACC-62 melanoma
[10] = system: DU-145 prostate

SMILES | GI50 [1] | TGI [1] | GI50 [2] | TGI [2] | GI50 [3] | TGI [3] | GI50 [4] | TGI [4] | GI50 [5] | TGI [5] | GI50 [6] | TGI [6] | GI50 [7] | TGI [7] | GI50 [8] | TGI [8] | GI50 [9] | TGI [10] | GI50 [10] | TGI [9]
[CH3][Sn]([CH3])([CH3])[S]C(=S)N1CCOCC1 | 4 µM | > 46.4 µM | 0.0786 µM | 0.432 µM | 0.146 µM | 2.03 µM | 1.39 µM | 6.75 µM | 0.0342 µM | 0.619 µM | 1.51 µM | 4.75 µM | 9.81 µM | 29.3 µM | 7.55 µM | > 100 µM | 0.553 µM |  |  | 
CC(=O)Oc1ccc2cc(Oc3cc(Cl)c(Cl)cc3Cl)c(=O)oc2c1 |  | 33.6 µM |  |  |  | 28.1 µM |  | 28.9 µM |  | 67.7 µM |  |  |  |  |  | 28.1 µM |  | > 100 µM |  | 
CCCCCCCCCCCC1N=C(N)N=C(N)N1c1cccc(Br)c1 (centres undefined) | 1.8 µM | 4.12 µM |  |  | 0.216 µM | 1.5 µM |  |  |  |  | 1.55 µM | 2.99 µM | 1.92 µM | 4.28 µM |  |  |  | 2.42 µM | 1.16 µM | 
CN(C)C(=O)C(F)(F)C(c1ccccc1Br)C1C(=O)N(C)C(=O)N(C)C1=O (centres undefined) |  | > 100 µM |  | > 100 µM |  | > 100 µM |  | > 100 µM |  | > 100 µM |  | > 100 µM |  | > 100 µM |  |  |  | > 100 µM |  | > 100 µM
NC(Cc1ccccc1)C(=O)OCN1C(=O)C2C3C=CC(C2C1=O)C1C(=O)N(COC(=O)C(N)Cc2ccccc2)C(=O)C31 (centres undefined) |  | > 100 µM |  | > 100 µM |  | > 100 µM |  | 42.2 µM |  | 39.2 µM |  | 52 µM |  |  |  | > 100 µM |  | > 100 µM |  | > 100 µM
CCOC(=O)C1=C(O)CC(=O)N=C1N1CCCC1 |  | > 100 µM |  | > 100 µM |  | > 100 µM |  | > 100 µM |  |  |  | > 100 µM |  | > 100 µM |  | > 100 µM |  | > 100 µM |  | > 100 µM
COC(=O)CN1CCN(c2cccc3c2CCCC3)CC1 |  | > 100 µM |  | > 100 µM |  | > 100 µM |  | > 100 µM |  | 94.3 µM |  | > 100 µM |  |  |  | > 100 µM |  |  |  | > 100 µM
COc1cc2c(c(OC)c1OC)C(=O)c1c(O)cc(C)c(OC)c1C2=O |  | > 100 µM |  | > 100 µM |  | > 100 µM |  | > 100 µM |  | > 100 µM |  | > 100 µM |  |  |  | > 100 µM |  | > 100 µM |  | 
Cc1ccc(C)c2c1C1CCCCC3(OCCCO3)C21O (centres undefined) |  | > 100 µM |  | > 100 µM |  | > 100 µM |  | > 100 µM |  |  |  | > 100 µM |  | > 100 µM |  | > 100 µM |  |  |  | > 100 µM
Cc1ccc(S(=O)(=O)OC[C@@]2(C)CC[C@]3(C)CC[C@]4(C)C(=C3C2)C=C[C@@H]2[C@@]3(C)CCCNC(C)(C)[C@@H]3CC[C@]24C)cc1 | 1.61 µM | 3.06 µM |  |  |  |  |  |  |  |  | 1.88 µM | 3.52 µM | 1.79 µM | 3.25 µM |  |  |  | 3.4 µM | 1.81 µM | 
Clc1cc(N/N=C(\c2ccccc2)c2ccccn2)ncn1 |  | 0.235 µM |  |  |  | > 100 µM |  | 1.74 µM |  |  |  | > 100 µM |  | 2 µM |  |  |  | > 100 µM |  | 2.7 µM
CNC(=O)[C@H](Cc1ccccc1)NC(=O)N(CCC#N)CCN(C(=O)N[C@@H](Cc1ccccc1)C(=O)OC)c1ccccc1 |  | > 100 µM |  | > 100 µM |  | > 100 µM |  | > 100 µM |  | > 100 µM |  | > 100 µM |  | > 100 µM |  |  |  | > 100 µM |  | > 100 µM
C=C1OC2OC(C)C(NC(=O)OCC(Cl)(Cl)Cl)C(OC(C)=O)C2O1 (centres undefined) |  | > 100 µM |  | > 100 µM |  | > 100 µM |  | > 100 µM |  | > 100 µM |  |  |  | > 100 µM |  | > 100 µM |  | > 100 µM |  | > 100 µM
C[N+](C)(CCNc1ccc(NCC[N+](C)(C)Cc2ccc([N+](=O)[O-])cc2)c2c1C(=O)c1c(O)ccc(O)c1C2=O)Cc1ccc([N+](=O)[O-])cc1 |  | > 50 µM |  | > 50 µM |  | > 50 µM |  | > 50 µM |  |  |  | > 50 µM |  | > 50 µM |  | > 50 µM |  | > 50 µM |  | > 50 µM
CCOC(=O)c1ccc(N(CCOS(C)(=O)=O)CCOS(C)(=O)=O)cc1 |  | 29.1 µM |  | > 100 µM |  | > 100 µM |  | > 100 µM |  | > 100 µM |  | > 100 µM |  |  |  |  |  | 47 µM |  | 77.6 µM
OC12CCC3(OC4CCCCO4)c4ccccc4C3C1c1ccccc12 (centres undefined) |  |  |  | > 100 µM |  | > 100 µM |  | > 100 µM |  |  |  | > 100 µM |  | > 100 µM |  | > 100 µM |  |  |  | > 100 µM
CC1OC(OC2C(O)CC(OC3C(O)CC(OC4CCC5(C)C(CCC6C5CCC5(C)C(C7=CC(=O)OC7)C(O)CC65O)C4)OC3C)OC2C)CC(O)C1O (centres undefined) |  | 0.396 µM |  | 0.844 µM |  | 0.576 µM |  | 0.235 µM |  |  |  | 1.55 µM |  | 1.31 µM |  |  |  | 0.236 µM |  | 1.18 µM
